# According to patent publication US20130209578A1, “Combinatory Cancer Treatment” (UNIVERSITE DE MONTREAL, priority 2010, published 2013):
# Entries after “also recorded” stand apart in the source; their conditions may differ.
# Assays:
# [1] = tested on: M1 AML specimen with elevated eIF4E (M1-high4E); assay: methyl-cellulose colony assay, M1 AML specimen with elevated eIF4E; format: cell-based, human; settings: ribavirin 1 micromolar, azacytidine 3 micromolar
# Text: (§1) FIG. 1 is a table summarizing the results of colony forming assays in methyl cellulose for primary AML specimens (purchased from the BLCQ) or specimens isolated from healthy volunteers (purchased from Stem Cell Technologies). A colony experiment typically runs for 14 days. A special media which supports hematopoietic cell growth was used (Methocult purchased from Stem Cell Technologies). Mutant refers to the presence of a mutation in the Flt3 gene (a common leukemia marker) and wildtype refers to Flt3 not being mutated in this specimen. Each experiment is carried out in quintuplicate with colony number plus/minus standard deviations given. […] Untreated controls were carried out in parallel for every single experiment. Experiments were done on specimens as described.
# primary AML specimens = assay: colony forming assay in methyl cellulose, primary AML specimens; format: cell-based, human; settings: Flt3 mutant versus Flt3 wildtype specimens, drug alone
# Text: as §1
# KG-1a cells = assay: western blot of eIF4E targets, apoptosis and autophagy markers in KG-1a cells; format: cell-based, human; settings: for Akt activation / LC3B level and cleavage (autophagy marker) / levels of eIF4E downstream targets XIAP, Mdm2, Mcl-1: KG1 cells; for levels of eIF4E downstream targets XIAP, Mdm2, Mcl-1: ribavirin 10 μM, azacytidine 3 μM
# THP-1 cells = assay: western blot of eIF4E targets, apoptosis and autophagy markers in THP-1 cells; format: cell-based, human; settings: for HoxA9 protein levels: FIG. 7
# [2] = tested on: acute myeloid leukemia (AML); assay: phase II clinical trial of ribavirin monotherapy in leukemia (AML) patients, NCT00559091; format: in vivo, human
# Text: Thus, because of its properties, the eukaryotic translation initiation factor, eIF4E, has become an appealing clinical target to treat patients diagnosed with cancer, in particular AML. […] 114, no. 2 (Jul. 9, 2009, Epub 2009 May 11).
# In conducting clinical trial no. […] In some patients, monotherapy had no impact. […] In fact, leukemic cells become resistant to nearly all monotherapies within two (2) to four (4) months; such being due to naturally occurring phenomena such as selective evolution (Abboud et al., “Induction therapy for elderly patients with acute myeloid leukemia”, Blood Reviews (2008) 22: 311-320, and Melnick et al., “MDS and secondary AML display unique patterns and abundance of aberrant DNA methylation”, Blood. 2009 Oct. 15; 114(16):3448-58. Epub 2009 Aug. 3). To overcome this issue of resistance, it is not uncommon in the clinical field, and as for most treatments involving a monotherapy, to follow-up this treatment with chemotherapy, as it taught in Abboud et al. (supra) and Melnick et al. (supra). As it is well known, the use of chemotherapeutic agents has many secondary effects on patients, including and not limited to damage of normal cells, anemia, bleeding, constipation, fatigue, hair loss, infections, memory changes, swelling, and even death amongst many others. Conventional chemotherapy also requires a stay at the hospital so as to administer the chemotherapeutic agent(s) as well as supportive care for the side effects. In this connection, Abboud et al., in Blood Reviews (2008, supra), review treatment strategies of patients over 60 (which are the majority of AML patients), diagnosed with AML, and the morbidities and mortalities associated with chemotherapy.
# Ribavirin was used extensively as a broad-spectrum anti-viral therapy.
# [3] = Assouline et al, Blood 2009; cited from earlier work
# purified eIF4E = settings: cited from earlier work
# [4] = tested on: M1 and M2 AML specimens (with normal eIF4E levels); assay: methyl-cellulose colony assay, M1 and M2 AML specimens with normal eIF4E; format: cell-based, human; settings: ribavirin 1 micromolar
# Text: as §1
# eIF4E = molecular target: T1, eIF4E (Homo sapiens, UniProt P06730); assay: 3H ribavirin immunoprecipitation with eIF4E antibodies in FaDu cells; format: binding; settings: 24 h, 0.66 micromolar 3H ribavirin, formaldehyde cross-linked
# T1 construct: endogenous in cells; host or cells: FaDu cells
# Text: Equal amounts of lysate were used for immunoprecipitation with antibodies to eIF4E or IgG controls. After 6 washes (W), beads were eluted in SDS Buffer. ⅕ of volume was used for western blot analysis and the rest for ^3H measurement. […] Input is a positive control showing that eIF4E is present in the cell lysate.
# FIG. 3 is a western blot control for FIG. 2. This western blot confirms that antibodies to eIF4E immunoprecipitated eIF4E and that eIF4E was not found in the IgG control immunoprecipitation.
# T1 sequence (P06730 whole entry): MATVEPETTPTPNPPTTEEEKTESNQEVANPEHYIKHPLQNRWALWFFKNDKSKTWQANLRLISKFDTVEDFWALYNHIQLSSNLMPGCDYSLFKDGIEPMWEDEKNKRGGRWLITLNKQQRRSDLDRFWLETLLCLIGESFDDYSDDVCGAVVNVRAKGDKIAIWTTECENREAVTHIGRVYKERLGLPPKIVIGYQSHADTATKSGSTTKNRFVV
Structure (SMILES),colonies versus untreated controls [1],dependence of the effect on colony growth on Flt3 status (primary AML specimens),levels of NFkappaB subunit p65 (KG-1a cells; FIG. 6),Akt activation (KG-1a cells),LC3B level and cleavage (autophagy marker) (KG-1a cells),"levels of eIF4E downstream targets XIAP, Mdm2, Mcl-1 (KG-1a cells)",HoxA9 protein levels (THP-1 cells),"levels of eIF4E downstream targets XIAP, mdm2, Mcl-1 (THP-1 cells; THP-1 cells)",clinical response of patients ([2]; Canada-wide clinical trial),resistance to monotherapy in patients ([2]; clinical trial no. NCT00559091),"eIF4E protein (and RNA) levels in patients ([2]; phase II clinical trial, ribavirin monotherapy)",concentration in plasma from patients [3] [µM],"Kd (purified eIF4E; Kentsis 2004, read-out: affinity constant for eIF4E) [µM]",Kd for purified eIF4E in vitro (purified eIF4E; Kentsis et al. 2004),colonies versus untreated cells [4],drop in colonies versus untreated cells [4] [%],"eIF4E protein levels (KG-1a cells; KG-1a and THP-1 cells, ribavirin 48 hours)","mdm2 protein level (eIF4E mRNA export target) (KG-1a cells; KG-1a cells, 48 hours)","mdm2 protein level (eIF4E mRNA export target) (THP-1 cells; THP-1 cells, 48 hours)",binding of 3H ribavirin to eIF4E in living cells (eIF4E)
"Nc1ncn([C@@H]2O[C@H](CO)[C@@H](O)[C@H]2O)c(=O)n1 [azacytidine, 4-amino-1-β-D-ribofuranosyl-1,3,5-triazin-2(1H)-one]",about 80%,independent of Flt3 status,elevated,leads to Akt activation,increases the total amount of LC3B protein,gross increase; also recorded: upregulated,elevates,upregulated; also recorded: elevated,–,–,–,–,–,–,–,–,–,–,–,–
"NC(=O)c1ncn([C@@H]2O[C@H](CO)[C@@H](O)[C@H]2O)n1 [ribavirin, 1-[(2R,3R,4S,5R)-3,4-dihydroxy-5-(hydroxymethyl)oxolan-2-yl]-1H-1,2,4-triazole-3-carboxamide]",–,independent of Flt3 status,–,reduces Akt activation,elevated LC3B levels,reduced the expression,does not reverse this,–,striking improvement,most if not all patients became resistant; also recorded: all eventually developed resistance,downregulation,10 to 20,~1,low micromolar range,70-80%,~25,do not change,downregulated,downregulated,binds directly to eIF4E in living cells; also recorded: eIF4E binds ^3H ribavirin
